Test results as given in patent US20250320565A1, “DETECTING ANTIBIOTIC AND/OR CHEMICAL USE IN AQUATIC ANIMALS USING EPIGENETIC MEANS” (Evonik Operations GmbH, priority 2022, published 2025).

Test system: marble crayfish
Test: DNA methylation analysis (Agilent Sure Select Methyl-Seq) of abdominal tissue genomic DNA after antibiotic administration in feed
Type: in vivo
Settings: for number of DNA segments with significant differences between the control and the treated animals: Kruskal Wallis test, p<0.05, CpGs with at least 10 reads, average methylation <0.2 or >0.8 filtered out
Experimental: Marble crayfish collected from a population at Lake Reilinger, Germany were collected for the experiment and reared from juveniles in the laboratory. A total of 30 adult marbled crayfish were reared in one of 5 treatments with replicates as outlined in Table 1: • 1) Control—no antibiotic treatment • 2) TetraA—Acute tetracycline administration at 10 mg/kg of feed for 7 days • 3) TetraB—Prophylactic tetracycline administration at 5 mg/kg of feed for 42 days • 4) NorA—administered at 10 mg/kg of feed for 7 days • 5) NorB—administered at 5 mg/kg of feed for 28 days
All other rearing variables were kept consistent for all treatment groups. Crayfish were reared in plastic containers with 20° C. tap water, which was replaced every two weeks, exposed to natural day-night light rhythms and daily feeding.
A subset of abdominal tissue genomic DNA samples (Table 1) was utilized for analysis of the Agilent Sure Select Methyl-Seq Assay. Abdominal tissue was extracted from marble crayfish directly after treatment duration, DNA was then extracted as previously described (Tönges et al, 2021).
Library preparation was carried out as described in the Agilent's Sure Select Methyl-Seq Target Enrichment System for Illumina Multiplexed Sequencing Protocol (version E0, April 2018) to specifically analyze 361 genes. These genes were previously characterized as variably methylated genes in the marble crayfish genome, showing differential site-specific methylation patterns in marble crayfish from different wild populations (Gatzmann et al., 2018; Tönges et al., 2021b).
Quality controls were performed, and sample concentrations were measured on a 2,200 TapeStation (Agilent). Multiplexed samples were submitted to the DKFZ High Throughput Sequencing core facility and sequenced on a HiSeq system (Illumina). For data analysis, the 361 sequenced genes were mapped to the bisulfite sequencing datasets of the entire […] genome (Gatzmann et al., 2018; Xi and Li 2009).
To identify antibiotic-specific methylation ratios in genomic DNA from abdominal tissue, the average methylation of each sample within 1 kb of DNA segments was calculated.
The data sets of the 1754 DNA segments were further analyzed and only the CpG positions covered in all samples with at least 10 reads were used. In addition, the CpGs that were either completely methylated or unmethylated (average methylation <0.2 or >0.8) were filtered out.
The DNA segments of the PCA were further analyzed and only the CpG positions that have at least 10 reads in all samples were reused. Furthermore, the CpGs that are completely unmethylated or methylated (average methylation <0.2 or >0.8) were filtered out.

[1] = NorB: 5 mg/kg of feed for 28 days, compared with control and NorA
[2] = control vs the two treatment groups, average methylation

Row | SMILES | number of DNA segments with significant differences between the control and the treated animals | average methylation rates of eight CpGs of gene Scaffold_52370: 13110767-13110901 (NorA: 10 mg/kg of feed for 7 days, compared with control) | methylation rates of eight CpGs of gene Scaffold_36323: 7555-7623 [1] | methylation ratios of eight CpGs of gene Scaffold_52370: 13110767-13110901 [1] | PCA separation between treated and untreated samples and between the two treatment groups (PCA of differentially methylated DNA segments) | effect size Cohen's d of all other DNA segments (very small effect) [2] | number of DNA segments showing a small effect (Cohen's d>0.2) [2] | analysis of DMRs, treatment groups vs control (p>0.05)
1 | CCn1cc(C(=O)O)c(=O)c2cc(F)c(N3CCNCC3)cc21 [norfloxacin] | 71 | no significant difference | higher methylation rates in all CpGs | higher methylation ratios of all CpGs | robust separation | < 0.02 | 4 | no significant differences
2 | CN(C)[C@@H]1C(O)=C(C(N)=O)C(=O)[C@@]2(O)C(O)=C3C(=O)c4c(O)cccc4[C@@](C)(O)[C@H]3C[C@@H]12 [tetracycline] | 432 |  |  |  |  |  |  | 
